Source: patent US7495027B2, “3-aryl-4-hydroxyfuranone compounds and the human and animal health use thereof” (Wyeth, priority 2003, dated 2009)
Values after ≈ are worked out from the molar mass of the structure shown. Read-outs that look alike come from different tables or passages of the source.

Experiments:
[1] = target: E. coli Enopyruvyl-UPD-N-acetylglucosamine reductase, Mur B (Escherichia coli, UniProt P08373); test: biochemical; settings: (E) E. coli enzyme; for IC50: read-out: MurB IC50 (converted)
Sequence of E. coli Enopyruvyl-UPD-N-acetylglucosamine reductase, Mur B (P08373 whole entry): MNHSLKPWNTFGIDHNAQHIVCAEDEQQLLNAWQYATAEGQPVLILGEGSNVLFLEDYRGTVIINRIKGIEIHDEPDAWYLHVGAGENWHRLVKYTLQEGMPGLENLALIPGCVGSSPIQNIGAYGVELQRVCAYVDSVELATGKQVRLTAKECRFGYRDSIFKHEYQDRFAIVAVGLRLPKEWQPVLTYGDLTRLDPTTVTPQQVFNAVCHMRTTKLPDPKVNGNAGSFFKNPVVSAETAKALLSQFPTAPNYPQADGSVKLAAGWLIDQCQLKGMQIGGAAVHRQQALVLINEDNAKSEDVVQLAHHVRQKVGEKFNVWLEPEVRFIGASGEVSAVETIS

[2] = target: T1, S. aureus Uridine-diphosphate-N-acetvimuramoyl: L-alanine lipase, MurC (Staphylococcus aureus, UniProt Q2FXJ0); test: biochemical; settings: (S) S. aureus enzyme; for IC50: read-out: MurC IC50 (converted)
T1 sequence (Q2FXJ0 1-437): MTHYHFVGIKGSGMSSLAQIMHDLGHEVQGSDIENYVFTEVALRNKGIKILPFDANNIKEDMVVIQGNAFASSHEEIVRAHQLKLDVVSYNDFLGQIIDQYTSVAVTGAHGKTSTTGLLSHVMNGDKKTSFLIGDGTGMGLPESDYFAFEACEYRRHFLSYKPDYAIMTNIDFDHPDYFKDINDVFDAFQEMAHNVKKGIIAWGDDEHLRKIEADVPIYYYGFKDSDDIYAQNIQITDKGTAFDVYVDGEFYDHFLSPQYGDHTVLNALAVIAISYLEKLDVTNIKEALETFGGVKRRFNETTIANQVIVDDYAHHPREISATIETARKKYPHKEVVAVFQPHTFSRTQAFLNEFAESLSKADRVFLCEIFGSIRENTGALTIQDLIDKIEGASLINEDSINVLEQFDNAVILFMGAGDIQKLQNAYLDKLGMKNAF
Procedure, shortened: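 MurC assay: enzyme (E. coli 100 μg/mL, S. aureus 70 μg/mL stock) with L-Ala and test compound, pre-incubated 10 min at 23 °C, then UDP-MurNac added, 10 min at 37 °C. Phosphate released detected by malachite green–molybdate at 660 nm; IC50 by linear regression.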

[3] = system: staphylococci; test: Minimum inhibitory concentration, microdilution broth method, staphylococci; format: cell-based; settings: Mueller-Hinton broth, 18-22 hours at 35° C.; for MIC: Staphylococcus aureus
Procedure, shortened: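 Strep: Mueller-Hinton + 5% horse blood (LHB). Enterococci, staph: Mueller-Hinton broth alone. Microdilution format per NCCLS M7-A5 2000; isolates include resistant clinical strains.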

[4] = target: T2, S. aureus Uridine-diphosphate-N-acetylmuramoyl-L-alanine: D-glutamate liease, MurD (Staphylococcus aureus, UniProt Q2FZ92); test: biochemical; settings: (S) S. aureus enzyme
T2 sequence (Q2FZ92 1-449): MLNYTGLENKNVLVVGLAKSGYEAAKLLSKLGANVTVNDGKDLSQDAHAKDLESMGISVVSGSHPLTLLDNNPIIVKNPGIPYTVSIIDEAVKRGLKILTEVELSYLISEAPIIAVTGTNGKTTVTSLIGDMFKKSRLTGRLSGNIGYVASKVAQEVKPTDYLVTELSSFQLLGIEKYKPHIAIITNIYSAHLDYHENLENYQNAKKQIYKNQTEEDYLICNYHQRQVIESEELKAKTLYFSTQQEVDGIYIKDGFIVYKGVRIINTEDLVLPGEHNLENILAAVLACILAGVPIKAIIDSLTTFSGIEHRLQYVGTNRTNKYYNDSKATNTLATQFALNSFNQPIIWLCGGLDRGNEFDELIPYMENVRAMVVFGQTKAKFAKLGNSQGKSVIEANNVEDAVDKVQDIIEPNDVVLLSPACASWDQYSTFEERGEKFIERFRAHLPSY
Procedure, shortened: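 Test solutions, 10 mg/mL stocks in DMSO, were brought to 100 μg/mL with 50 mM Tris/HCl (pH 8.5). Their inhibition of MurD, the enzyme of the fourth cell wall biosynthesis step, was measured.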

[5] = S. aureus GC 1131, read-out: MIC S. aureus GC 1131
[6] = S. aureus GC 4543, read-out: MIC S. aureus GC 4543

Row | Compound | MurB IC50 [1] | MurC IC50 [2] | MIC S. aureus GC 1131 ([3]; S. aureus GC 1131) | MIC S. aureus GC 4543 ([3]; S. aureus GC 4543) | MurD IC50 [4] | IC50 [1] | IC50 [2] | MIC [3, 5] | MIC [3, 6] | IC50 [4]
1 | O=C1O/C(=C\c2ccc(-c3cccc(C(F)(F)F)c3)cc2)C(O)=C1c1cccc(C(F)(F)F)c1 | 4 (E) μg/mL | 22 µg/mL | 4 µg/mL (≈ 8.4 µM) | 1 µg/mL (≈ 2.1 µM) | 15 µg/mL |  |  |  |  | 
2 | O=C1O/C(=C\c2ccccc2-c2cccc(Cl)c2)C(O)=C1c1cccc(Cl)c1 [Example 140] |  |  |  |  |  | 9.77 µM | 19.5 µM | 1 µg/mL (≈ 2.44 µM) | 1 µg/mL (≈ 2.44 µM) | 48.9 µM
3 | Cc1ccc(C=C2OC(=O)C(c3ccc(Cl)cc3)=C2O)s1 [Example 14] | >25 (E) μg/mL | 22 µg/mL | >128 µg/mL | >128 µg/mL | >25 (E); >25 (S) μg/mL |  |  |  |  | 
4 | Cc1ccc(C=C2OC(=O)C(c3ccc(Cl)cc3)=C2O)s1 (mixture of isomers) [Example 13] | 12 (E) μg/mL | 15 µg/mL | 64 µg/mL | >128 µg/mL | 20 µg/mL |  |  |  |  | 
5 | CN(C)c1ccc(/C=C2\OC(=O)C(c3ccc(Cl)cc3)=C2O)c2ccccc12 [Example 78] |  |  |  |  |  | 7.66 µM | 53.6 µM | 32 µg/mL (≈ 81.7 µM) | 32 µg/mL (≈ 81.7 µM) | > 63.8 µM
6 | Cc1ccccc1-c1ccc(/C=C2\OC(=O)C(c3cc(Cl)cc(Cl)c3)=C2O)cc1C [Example 29] |  |  |  |  |  | 4.57 µM | 54.9 µM | 0.5 µg/mL (≈ 1.14 µM) | 0.5 µg/mL (≈ 1.14 µM) | 38.9 µM
7 | COc1cc(/C=C2\OC(=O)C(c3cccc(Cl)c3)=C2O)ccc1-c1ccccc1C [Example 22] |  |  |  |  |  | 14.3 µM | 28.6 µM | 4 µg/mL (≈ 9.55 µM) | 4 µg/mL (≈ 9.55 µM) | 40.6 µM
8 | O=C1O/C(=C\c2ccccc2-c2ccc(Cl)cc2)C(O)=C1c1ccc(Cl)cc1 [Example 137] |  |  |  |  |  | 51.3 µM | 56.2 µM | 8 µg/mL (≈ 19.5 µM) | 8 µg/mL (≈ 19.5 µM) | 44 µM
9 | COc1cc(/C=C2\OC(=O)C(c3cc(Cl)cc(Cl)c3)=C2O)ccc1-c1ccccc1C [Example 25] |  |  |  |  |  | 4.41 µM | 26.5 µM | 1 µg/mL (≈ 2.21 µM) | 0.5 µg/mL (≈ 1.1 µM) | 30.9 µM
10 | O=C1O/C(=C\c2ccc(-c3ccccc3)cc2)C(O)=C1c1cccc(C(F)(F)F)c1 [Example 10] |  |  |  |  |  | 14.7 µM | 17.1 µM | 4 µg/mL (≈ 9.79 µM) | 2 µg/mL (≈ 4.9 µM) | 31.8 µM
11 | O=C1OC(=CC2CCCCC2)C(O)=C1c1cccc(C(F)(F)F)c1 [Example 16] | >25 (E) μg/mL | 22 µg/mL | 64 µg/mL (≈ 189 µM) | >128 µg/mL | >25 (E); >25 (S) μg/mL |  |  |  |  | 
12 | CN(C)c1ccc(C=C2OC(=O)C(c3cc(Cl)cc(Cl)c3)=C2O)c2ccccc12 [Example 80] | 3 µg/mL | 18 (S) μg/mL | 2 µg/mL (≈ 4.69 µM) | 1 µg/mL (≈ 2.35 µM) | 13 (S) μg/mL |  |  |  |  | 
13 | O=C1O/C(=C\c2ccc(-c3cc(Cl)cc(Cl)c3)cc2)C(O)=C1c1cc(Cl)cc(Cl)c1 | 3 (E) μg/mL |  |  |  |  |  | 48.1 µM | 4 µg/mL (≈ 8.37 µM) | 0.5 µg/mL (≈ 1.05 µM) | > 52.3 µM
14 | O=C1O/C(=C\c2ccc(-c3ccccc3)cc2)C(O)=C1c1ccc(Cl)cc1 [Example 53] |  |  |  |  |  | 16 µM | 18.7 µM | 16 µg/mL (≈ 42.7 µM) | 16 µg/mL (≈ 42.7 µM) | 42.7 µM
15 | O=C1O/C(=C\c2cccc3ccccc23)C(O)=C1c1ccc(-c2ccccc2)cc1 [R=H, R1=4-biphenyl, R2=1-naphthyl] |  |  |  |  |  | 12.8 µM | 48.7 µM | 8 µg/mL (≈ 20.5 µM) | 4 µg/mL (≈ 10.2 µM) | 38.4 µM
16 | CCOC(=O)c1cccc(C2=C(O)C(=Cc3cccc4ccccc34)OC2=O)c1 [Example 75] | > 25 µg/mL | 20 µg/mL | 64 µg/mL (≈ 166 µM) | >128 µg/mL | >25 (E); >25 (S) μg/mL |  |  |  |  | 
